The NIST ThermoML archive (doi:10.1021/je100967k)
Several values for one entry are separate records, joined by “and”; a condition that tells them apart may be missing. Equal values may be shown once.

How the values were obtained:
[1] = xn = mol fraction of the nth substance listed; conditions: 101 kPa, Liquid; for speed of sound: Pulse-echo method
[2] = refractive index (Na D-line) (dimensionless); xn = mol fraction of the nth substance listed; conditions: 101 kPa, Liquid, Standard Abbe refractometry
[3] = refractive index (Na D-line) (dimensionless); conditions: 101.33 kPa, Liquid, Standard Abbe refractometry
[4] = 101 kPa, Liquid; for speed of sound: Pulse-echo method

CCO [ethanol] + CN1CCCC1=O
x2 = 0
Conditions	mass density, [1] [kg/m3]	refractive index, [2]	speed of sound, [1] [m/s]	viscosity, [1] [mPa·s]
293.15 K	789.54	1.3616	1162.3	1.116
303.15 K	780.94	1.3574	1128.9	0.9502
313.15 K	772.2	1.3532	1095.4	0.7899
323.15 K	763.29	1.3493	1071.9	0.6304

CCO [ethanol]
Conditions	mass density, [4] [kg/m3]	refractive index, [3]	speed of sound, [4] [m/s]	viscosity, [4] [mPa·s]
293.15 K	789.54	1.3616	1162.3	1.116
303.15 K	780.94	1.3574	1128.9	0.9502
313.15 K	772.2	1.3532	1095.4	0.7899
323.15 K	763.29	1.3493	1071.9	0.6304

CN1CCCC1=O [N-methylpyrrolidone] + NCCO
x1 = 1
Conditions	mass density, [1] [kg/m3]	refractive index, [2]	speed of sound, [1] [m/s]	viscosity, [1] [mPa·s]
293.15 K	1032.87	1.4691	1565.3	1.858
303.15 K	1023.95	1.4647	1526.5	1.553
313.15 K	1015.03	1.4603	1487.8	1.324
323.15 K	1006.1	1.4559	1450.2	1.146

NCCO [2-aminoethan-1-ol]
Conditions	mass density, [4] [kg/m3]	refractive index, [3]	speed of sound, [4] [m/s]	viscosity, [4] [mPa·s]
293.15 K	1016.65	1.4525	1735.9	24.61
303.15 K	1008.74	1.4488	1703.7	14.96
313.15 K	1000.77	1.4449	1671.2	9.839
323.15 K	992.75	1.4417	1638.8	6.902

CN1CCCC1=O [N-methylpyrrolidone]
Conditions	mass density, [4] [kg/m3]	refractive index, [3]	speed of sound, [4] [m/s]	viscosity, [4] [mPa·s]
293.15 K	1032.87	1.4706 and 1.4691	1565.3	1.858
303.15 K	1023.95	1.4664 and 1.4647	1526.5	1.553
313.15 K	1015.03	1.4621 and 1.4603	1487.8	1.324
323.15 K	1006.1	1.4576 and 1.4559	1450.2	1.146
